Assay results reported in ChEMBL document CHEMBL4765247, “Novel mouse GABA uptake inhibitors with enhanced inhibitory activity toward mGAT3/4 and their effect on pain threshold in mice” (Eur J Med Chem, 2020).

What was measured:
Assay type in all cases: cell-based
[1] = molecular target: Sodium- and chloride-dependent GABA transporter 1 (Homo sapiens, UniProt P30531); assay: Inhibition of human […] expressed in tsA201 cells assessed as inhibition of [3H]GABA uptake by liquid scintillation method
[2] = molecular target: T1, Sodium- and chloride-dependent betaine transporter (Homo sapiens, UniProt P48065); assay: Inhibition of human BGT1 expressed in tsA201 cells assessed as inhibition of [3H]GABA uptake by liquid scintillation method
T1 sequence (P48065 whole entry): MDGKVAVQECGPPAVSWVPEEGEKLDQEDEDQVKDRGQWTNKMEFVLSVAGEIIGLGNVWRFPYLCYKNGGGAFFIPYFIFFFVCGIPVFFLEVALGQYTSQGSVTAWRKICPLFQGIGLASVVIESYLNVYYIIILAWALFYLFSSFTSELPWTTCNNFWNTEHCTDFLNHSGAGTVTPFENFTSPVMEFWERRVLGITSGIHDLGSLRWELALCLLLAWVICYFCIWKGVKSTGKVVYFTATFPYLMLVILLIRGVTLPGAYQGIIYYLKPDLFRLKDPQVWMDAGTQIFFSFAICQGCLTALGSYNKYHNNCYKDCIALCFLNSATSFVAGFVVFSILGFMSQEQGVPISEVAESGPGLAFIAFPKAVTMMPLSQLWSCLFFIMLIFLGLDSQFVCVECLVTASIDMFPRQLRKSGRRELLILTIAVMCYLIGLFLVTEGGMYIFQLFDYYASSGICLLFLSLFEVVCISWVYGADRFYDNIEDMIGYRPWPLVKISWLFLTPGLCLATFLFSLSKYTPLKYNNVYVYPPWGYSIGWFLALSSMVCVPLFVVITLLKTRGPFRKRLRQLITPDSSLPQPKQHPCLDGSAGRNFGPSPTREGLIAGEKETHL

[3] = molecular target: T2, Sodium- and chloride-dependent GABA transporter 2 (Homo sapiens, UniProt Q9NSD5); assay: Inhibition of human […] expressed in tsA201 cells assessed as inhibition of [3H]GABA uptake by liquid scintillation method
T2 sequence (Q9NSD5 whole entry): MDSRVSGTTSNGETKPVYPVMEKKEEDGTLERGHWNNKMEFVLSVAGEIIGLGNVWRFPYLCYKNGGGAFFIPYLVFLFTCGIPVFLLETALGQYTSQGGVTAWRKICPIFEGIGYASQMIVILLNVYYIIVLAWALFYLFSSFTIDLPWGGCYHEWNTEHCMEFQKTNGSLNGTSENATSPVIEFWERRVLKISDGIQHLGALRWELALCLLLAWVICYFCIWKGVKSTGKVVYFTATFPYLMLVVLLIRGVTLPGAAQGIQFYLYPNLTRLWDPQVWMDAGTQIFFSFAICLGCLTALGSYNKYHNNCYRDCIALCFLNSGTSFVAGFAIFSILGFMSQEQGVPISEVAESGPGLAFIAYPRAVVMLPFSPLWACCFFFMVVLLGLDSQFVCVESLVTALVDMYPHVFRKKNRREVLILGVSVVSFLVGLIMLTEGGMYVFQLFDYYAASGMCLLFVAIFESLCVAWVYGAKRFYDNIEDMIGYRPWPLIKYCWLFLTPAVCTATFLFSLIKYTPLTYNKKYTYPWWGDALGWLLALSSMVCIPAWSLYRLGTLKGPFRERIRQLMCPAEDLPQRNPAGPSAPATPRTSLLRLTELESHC

[4] = molecular target: T3, Sodium- and chloride-dependent GABA transporter 3 (Homo sapiens, UniProt P48066); assay: Inhibition of human […] expressed in tsA201 cells assessed as inhibition of [3H]GABA uptake by liquid scintillation method
T3 sequence (P48066 whole entry): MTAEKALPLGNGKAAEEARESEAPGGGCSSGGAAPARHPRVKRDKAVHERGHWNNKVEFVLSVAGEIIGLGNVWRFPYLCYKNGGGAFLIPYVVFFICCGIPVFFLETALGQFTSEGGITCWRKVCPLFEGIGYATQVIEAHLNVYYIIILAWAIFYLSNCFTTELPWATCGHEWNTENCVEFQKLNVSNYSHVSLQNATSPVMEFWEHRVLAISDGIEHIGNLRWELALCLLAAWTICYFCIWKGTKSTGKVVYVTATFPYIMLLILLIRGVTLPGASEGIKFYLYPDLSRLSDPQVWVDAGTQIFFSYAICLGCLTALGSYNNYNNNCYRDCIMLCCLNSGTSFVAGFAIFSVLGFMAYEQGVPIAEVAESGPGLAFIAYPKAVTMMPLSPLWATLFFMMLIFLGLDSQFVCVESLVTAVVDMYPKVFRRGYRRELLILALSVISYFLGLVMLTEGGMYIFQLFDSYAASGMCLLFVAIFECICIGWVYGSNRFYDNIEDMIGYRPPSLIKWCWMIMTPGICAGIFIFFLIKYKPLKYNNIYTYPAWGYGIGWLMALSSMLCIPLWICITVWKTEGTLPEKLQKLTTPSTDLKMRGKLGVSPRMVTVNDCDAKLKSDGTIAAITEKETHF

Sequence of Sodium- and chloride-dependent GABA transporter 1 (P30531 whole entry): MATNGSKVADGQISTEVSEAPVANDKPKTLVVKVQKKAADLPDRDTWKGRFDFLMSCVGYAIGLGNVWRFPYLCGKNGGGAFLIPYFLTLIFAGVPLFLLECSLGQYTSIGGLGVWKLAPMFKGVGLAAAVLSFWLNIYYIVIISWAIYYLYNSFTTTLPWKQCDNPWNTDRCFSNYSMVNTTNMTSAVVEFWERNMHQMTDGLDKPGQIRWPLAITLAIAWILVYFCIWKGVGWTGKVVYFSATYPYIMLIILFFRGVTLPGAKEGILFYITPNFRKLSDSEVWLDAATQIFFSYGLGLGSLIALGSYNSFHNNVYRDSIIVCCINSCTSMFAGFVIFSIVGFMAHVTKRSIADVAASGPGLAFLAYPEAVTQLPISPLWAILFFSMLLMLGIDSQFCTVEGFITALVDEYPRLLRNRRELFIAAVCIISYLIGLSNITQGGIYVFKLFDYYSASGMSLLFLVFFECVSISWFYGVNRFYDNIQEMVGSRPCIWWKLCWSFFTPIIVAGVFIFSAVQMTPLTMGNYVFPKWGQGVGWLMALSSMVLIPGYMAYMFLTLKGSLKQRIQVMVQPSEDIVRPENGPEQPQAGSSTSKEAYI

**Q.** With `NCC(N)C(=O)O` (centres undefined) as the compound, how does the IC50 [1] read?
**A.** > 1000 µM

**Q.** What about the IC50 [2] of the same compound?
**A.** 631 µM

**Q.** And the IC50 [3]?
**A.** 39.8 µM

**Q.** And the IC50 [4]?
**A.** 31.6 µM
